The results in this text go back to ChEMBL document CHEMBL3627696, “Pontemazines A and B, phenazine derivatives containing a methylamine linkage from Streptomyces sp. UT1123 and their protective effect to HT-22 neuronal cells” (2015).

Calls of active or inactive are those of the source. No cut-off for these calls is given here.

In assay [1] the test system is HT-22. Briefly: Neuroprotective activity against monosodium glutamate-induced cell death in mouse HT22 cells assessed as cell viability at 10 uM preincubated for 2 hrs followed by monosodium glutamate addition measured after 24 hrs by MTT assay (reference value: 50%). Particulars: read-out: Activity. The class given is functional.
Assay [2] deals with HT-22. Briefly: Neuroprotective activity against monosodium glutamate-induced cell death in mouse HT22 cells at 5 uM preincubated for 2 hrs followed by monosodium glutamate addition measured after 24 hrs by phase contrast microscopic analysis. The class given is functional, cell-based.
The test system of assay [3] is HT-22. Description: Neuroprotective activity against monosodium glutamate-induced cell death in mouse HT22 cells at 10 uM preincubated for 2 hrs followed by monosodium glutamate addition measured after 24 hrs by phase contrast microscopic analysis. The class given is functional, cell-based.
Assay [4] concerns HT-22. Briefly: Neuroprotective activity against monosodium glutamate-induced cell death in mouse HT22 cells assessed as cell viability at 25 to 50 uM preincubated for 2 hrs followed by monosodium glutamate addition measured after 24 hrs by MTT assay (reference value: 50%). The class given is functional.

For the molecule `COc1ccc(CNc2ccccc2C(N)=O)c2nc3cccc(C(=O)O)c3nc12`, the viability at 10 µM in assay [1] amounted to 90%. The outcome in assay [2] was inactive. Moreover, the outcome in assay [3] was Active. In addition, in assay [4], the Activity was >90%.

For the molecule `COc1ccc(CNc2ccccc2C(N)=O)c2nc3cccc(C(N)=O)c3nc12`, the viability at 10 µM in assay [1] turned out to be 90%. Moreover, the outcome in assay [2] was inactive. Also, the outcome in assay [3] was Active.
